Patent US11357230B2, “Herbicidal amides” (FMC Corporation, priority 2017, dated 2022)

Columns and labels:
Assay type in all cases: in vivo
[1] = tested on: barnyardgrass (Echinochloa crus-galli); assay: Test A postemergence, barnyardgrass; details: approximately 10 d
Source text: (§1) Seeds of plant species selected from barnyardgrass (Echinochloa crus-galli), kochia (Kochia scoparia), ragweed (common ragweed, Ambrosia elatior), ryegrass, Italian (Italian ryegrass, Lolium multiflorum), foxtail, green (green foxtail, Setaria viridis), and pigweed (Amaranthus retroflexus) were planted into a blend of loam soil and sand and treated preemergence with a directed soil spray using test chemicals formulated in a non-phytotoxic solvent mixture which included a surfactant. At the same time, plants selected from these weed species and also wheat (Triticum aestivum), corn (Zea mays), blackgrass (Alopecurus myosuroides), and galium (catchweed bedstraw, Galium aparine) were planted in pots containing the same blend of loam soil and sand and treated with postemergence applications of test chemicals formulated in the same manner. Plants ranged in height from 2 to 10 cm and were in the one- to two-leaf stage for the postemergence treatment. Treated plants and untreated controls were maintained in a greenhouse for approximately 10 d, after which time all treated plants were compared to untreated controls and visually evaluated for injury. Plant response ratings, summarized in Table A, are based on a 0 to 100 scale where 0 is no effect and 100 is complete control. A dash (-) response means no test result.

[2] = tested on: blackgrass (Alopecurus myosuroides); assay: Test A postemergence, blackgrass; details: approximately 10 d
Source text: as §1

[3] = tested on: corn (Zea mays); assay: Test A postemergence, corn; details: approximately 10 d
Source text: as §1

[4] = tested on: foxtail, green (green foxtail, Setaria viridis); assay: Test A postemergence, green foxtail; details: approximately 10 d
Source text: as §1

[5] = tested on: galium (catchweed bedstraw, Galium aparine); assay: Test A postemergence, galium; details: approximately 10 d
Source text: as §1

[6] = tested on: kochia (Kochia scoparia); assay: Test A postemergence, kochia; details: approximately 10 d
Source text: as §1

[7] = tested on: pigweed (Amaranthus retroflexus); assay: Test A postemergence, pigweed; details: approximately 10 d
Source text: as §1

[8] = tested on: ragweed (common ragweed, Ambrosia elatior); assay: Test A postemergence, ragweed; details: approximately 10 d
Source text: as §1

[9] = tested on: ryegrass, Italian (Italian ryegrass, Lolium multiflorum); assay: Test A postemergence, Italian ryegrass; details: approximately 10 d
Source text: as §1

[10] = tested on: wheat (Triticum aestivum); assay: Test A postemergence, wheat; details: approximately 10 d
Source text: as §1

[11] = tested on: barnyardgrass (Echinochloa crus-galli); assay: Test A preemergence, barnyardgrass; details: approximately 10 d
Source text: as §1

[12] = tested on: foxtail, green (green foxtail, Setaria viridis); assay: Test A preemergence, green foxtail; details: approximately 10 d
Source text: as §1

[13] = tested on: kochia (Kochia scoparia); assay: Test A preemergence, kochia; details: approximately 10 d
Source text: as §1

[14] = tested on: pigweed (Amaranthus retroflexus); assay: Test A preemergence, pigweed; details: approximately 10 d
Source text: as §1

[15] = tested on: ragweed (common ragweed, Ambrosia elatior); assay: Test A preemergence, ragweed; details: approximately 10 d
Source text: as §1

[16] = tested on: ryegrass, Italian (Italian ryegrass, Lolium multiflorum); assay: Test A preemergence, Italian ryegrass; details: approximately 10 d
Source text: as §1

[17] = tested on: barnyardgrass (Echinochloa crus-galli); assay: Test B flooded paddy test, barnyardgrass; details: 250 g ai/ha, Flood (paddy water), 13 to 15 d
Procedure: (§2) Plant species in the flooded paddy test selected from rice (Oryza sativa), sedge, umbrella (small-flower umbrella sedge, Cyperus difformis), ducksalad (Heteranthera limosa), and barnyardgrass (Echinochloa crus-galli) were grown to the 2-leaf stage for testing. At time of treatment, test pots were flooded to 3 cm above the soil surface, treated by application of test compounds directly to the paddy water, and then maintained at that water depth for the duration of the test. Treated plants and controls were maintained in a greenhouse for 13 to 15 d, after which time all species were compared to controls and visually evaluated. Plant response ratings, summarized in Table B, are based on a scale of 0 to 100 where 0 is no effect and 100 is complete control. A dash (-) response means no test result.

[18] = tested on: ducksalad (Heteranthera limosa); assay: Test B flooded paddy test, ducksalad; details: 250 g ai/ha, Flood (paddy water), 13 to 15 d
Procedure: as §2

[19] = tested on: rice (Oryza sativa); assay: Test B flooded paddy test, rice; details: 250 g ai/ha, Flood (paddy water), 13 to 15 d
Procedure: as §2

[20] = tested on: sedge, umbrella (small-flower umbrella sedge, Cyperus difformis); assay: Test B flooded paddy test, umbrella sedge; details: 250 g ai/ha, Flood (paddy water), 13 to 15 d
Procedure: as §2

CN1C[C@H](c2ccc(C(F)(F)F)cc2)[C@@H](C(=O)Nc2cccc(F)c2F)C1=NN [Compound 2, (3R,4S)—N-(2,3-difluorophenyl)-2-hydrazinylidene-1-methyl-4-[4-(trifluoromethyl)phenyl]-3-pyrrolidinecarboxamide]
Plant response rating (0 to 100 scale, 0 is no effect, 100 is complete control) ([1]; 31 g ai/ha): 20 | Plant response rating (0 to 100 scale, 0 is no effect, 100 is complete control) ([1]; 125 g ai/ha): 60 | Plant response rating (0 to 100 scale, 0 is no effect, 100 is complete control) ([2]; 31 g ai/ha): 0 | Plant response rating (0 to 100 scale, 0 is no effect, 100 is complete control) ([2]; 125 g ai/ha): 30 | Plant response rating (0 to 100 scale, 0 is no effect, 100 is complete control) ([3]; 31 g ai/ha): 10 | Plant response rating (0 to 100 scale, 0 is no effect, 100 is complete control) ([3]; 125 g ai/ha): 10 | Plant response rating (0 to 100 scale, 0 is no effect, 100 is complete control) ([4]; 31 g ai/ha): 30 | Plant response rating (0 to 100 scale, 0 is no effect, 100 is complete control) ([4]; 125 g ai/ha): 70 | Plant response rating (0 to 100 scale, 0 is no effect, 100 is complete control) ([5]; 31 g ai/ha): 60 | Plant response rating (0 to 100 scale, 0 is no effect, 100 is complete control) ([5]; 125 g ai/ha): 60 | Plant response rating (0 to 100 scale, 0 is no effect, 100 is complete control) ([6]; 31 g ai/ha): 0 | Plant response rating (0 to 100 scale, 0 is no effect, 100 is complete control) ([6]; 125 g ai/ha): 0 | Plant response rating (0 to 100 scale, 0 is no effect, 100 is complete control) ([7]; 31 g ai/ha): 0 | Plant response rating (0 to 100 scale, 0 is no effect, 100 is complete control) ([7]; 125 g ai/ha): 40 | Plant response rating (0 to 100 scale, 0 is no effect, 100 is complete control) ([8]; 31 g ai/ha): 0 | Plant response rating (0 to 100 scale, 0 is no effect, 100 is complete control) ([8]; 125 g ai/ha): 0 | Plant response rating (0 to 100 scale, 0 is no effect, 100 is complete control) ([9]; 31 g ai/ha): 0 | Plant response rating (0 to 100 scale, 0 is no effect, 100 is complete control) ([9]; 125 g ai/ha): 30 | Plant response rating (0 to 100 scale, 0 is no effect, 100 is complete control) ([10]; 31 g ai/ha): 0 | Plant response rating (0 to 100 scale, 0 is no effect, 100 is complete control) ([10]; 125 g ai/ha): 0 | Plant response rating (0 to 100 scale, 0 is no effect, 100 is complete control) ([11]; 31 g ai/ha): 70 | Plant response rating (0 to 100 scale, 0 is no effect, 100 is complete control) ([11]; 125 g ai/ha): 90 | Plant response rating (0 to 100 scale, 0 is no effect, 100 is complete control) ([12]; 31 g ai/ha): 70 | Plant response rating (0 to 100 scale, 0 is no effect, 100 is complete control) ([12]; 125 g ai/ha): 100 | Plant response rating (0 to 100 scale, 0 is no effect, 100 is complete control) ([13]; 31 g ai/ha): 0 | Plant response rating (0 to 100 scale, 0 is no effect, 100 is complete control) ([13]; 125 g ai/ha): 60 | Plant response rating (0 to 100 scale, 0 is no effect, 100 is complete control) ([14]; 31 g ai/ha): 0 | Plant response rating (0 to 100 scale, 0 is no effect, 100 is complete control) ([14]; 125 g ai/ha): 80 | Plant response rating (0 to 100 scale, 0 is no effect, 100 is complete control) ([15]; 31 g ai/ha): 0 | Plant response rating (0 to 100 scale, 0 is no effect, 100 is complete control) ([15]; 125 g ai/ha): 40 | Plant response rating (0 to 100 scale, 0 is no effect, 100 is complete control) ([16]; 31 g ai/ha): 0 | Plant response rating (0 to 100 scale, 0 is no effect, 100 is complete control) ([16]; 125 g ai/ha): 0 | Plant response rating (scale of 0 to 100, 0 is no effect, 100 is complete control) [17]: 40 | Plant response rating (scale of 0 to 100, 0 is no effect, 100 is complete control) [18]: 0 | Plant response rating (scale of 0 to 100, 0 is no effect, 100 is complete control) [19]: 0 | Plant response rating (scale of 0 to 100, 0 is no effect, 100 is complete control) [20]: 50
